Results published in the CheMixHub ionic liquid set.
Values joined by “and” are separate entries in the source; they are usually repeats but may differ in a detail not shown here. Equal values may be shown once.

Experiment: xn = mol fraction of the nth substance listed

OC[C@H]1O[C@H](O[C@H]2[C@H](O)[C@@H](O)C(O)O[C@@H]2CO)[C@H](O)[C@@H](O)[C@@H]1O (some centres undefined) + O + CCCC[n+]1ccn(C)c1.[Cl-]
298.15 K, 101.3 kPa
Details | electrical conductivity
x1 = 0.003591, x3 = 5.29e-06 | 0.00303 S/m
x1 = 0.003591, x3 = 8.39e-06 | 0.00457 S/m
x1 = 0.003591, x3 = 1.182e-05 | 0.00625 S/m
x1 = 0.003591, x3 = 1.516e-05 | 0.00787 S/m
x1 = 0.003591, x3 = 1.84e-05 | 0.00941 S/m
x1 = 0.003591, x3 = 2.179e-05 | 0.011 S/m
x1 = 0.003591, x3 = 2.475e-05 | 0.01239 S/m
x1 = 0.003591, x3 = 2.776e-05 | 0.0138 S/m
x1 = 0.003591, x3 = 3.087e-05 | 0.01519 S/m
x1 = 0.003591, x3 = 3.39e-05 | 0.0165 S/m
x1 = 0.003591, x3 = 3.679e-05 | 0.0179 S/m
x1 = 0.007156, x3 = 7.85e-06 | 0.00369 S/m
x1 = 0.007156, x3 = 1.182e-05 | 0.00532 S/m
x1 = 0.007156, x3 = 1.573e-05 | 0.00691 S/m
x1 = 0.007156, x3 = 1.984e-05 | 0.00855 S/m
x1 = 0.007156, x3 = 2.38e-05 | 0.01011 S/m
x1 = 0.007156, x3 = 2.785e-05 | 0.0117 S/m
x1 = 0.007156, x3 = 3.214e-05 | 0.01336 S/m
x1 = 0.007156, x3 = 3.627e-05 | 0.0149 S/m
x1 = 0.007156, x3 = 4.07e-05 | 0.0166 S/m
x1 = 0.007156, x3 = 4.483e-05 | 0.01815 S/m
x1 = 0.0107, x3 = 7.55e-06 | 0.0031 S/m
x1 = 0.0107, x3 = 1.145e-05 | 0.00447 S/m
x1 = 0.0107, x3 = 1.56e-05 | 0.0059 S/m
x1 = 0.0107, x3 = 1.953e-05 | 0.00725 S/m
x1 = 0.0107, x3 = 2.385e-05 | 0.0087 S/m
x1 = 0.0107, x3 = 2.86e-05 | 0.01028 S/m
x1 = 0.0107, x3 = 3.328e-05 | 0.0118 S/m
x1 = 0.0107, x3 = 3.79e-05 | 0.01332 S/m
x1 = 0.0107, x3 = 4.278e-05 | 0.0149 S/m
x1 = 0.0107, x3 = 4.74e-05 | 0.01635 S/m
x1 = 0.0107, x3 = 5.2e-05 | 0.0178 S/m
x1 = 0.01421, x3 = 1.044e-05 | 0.00364 S/m
x1 = 0.01421, x3 = 1.582e-05 | 0.0052 S/m
x1 = 0.01421, x3 = 2.09e-05 | 0.00666 S/m
x1 = 0.01421, x3 = 2.625e-05 | 0.00817 S/m
x1 = 0.01421, x3 = 3.215e-05 | 0.00982 S/m
x1 = 0.01421, x3 = 3.779e-05 | 0.01136 S/m
x1 = 0.01421, x3 = 4.365e-05 | 0.013 S/m
x1 = 0.01421, x3 = 4.958e-05 | 0.0146 S/m
x1 = 0.01421, x3 = 5.535e-05 | 0.01611 S/m
x1 = 0.0177, x3 = 7.16e-06 | 0.00235 S/m
x1 = 0.0177, x3 = 1.43e-05 | 0.00413 S/m
x1 = 0.0177, x3 = 2.14e-05 | 0.00587 S/m
x1 = 0.0177, x3 = 2.851e-05 | 0.0076 S/m
x1 = 0.0177, x3 = 3.535e-05 | 0.00922 S/m
x1 = 0.0177, x3 = 4.182e-05 | 0.0107 S/m
x1 = 0.0177, x3 = 4.861e-05 | 0.01232 S/m
x1 = 0.0177, x3 = 5.526e-05 | 0.0138 S/m
x1 = 0.0177, x3 = 6.177e-05 | 0.01534 S/m
x1 = 0.0177, x3 = 6.769e-05 | 0.0167 S/m
x1 = 0.0177, x3 = 7.386e-05 | 0.01804 S/m
x1 = 0.02116, x2 = 0.9788 | 0.0134 S/m and 0.0146 S/m and 0.0157 S/m

O=[N+]([O-])[O-].O=[N+]([O-])[O-].O=[N+]([O-])[O-].[Al+3] + O + CC[NH3+].O=[N+]([O-])[O-]
100 kPa
Details | electrical conductivity [S/m] | viscosity [mPa·s]
233 K, x1 = 0.1395, x2 = 0.5934 | 0.001 | –
243 K, x1 = 0.1395, x2 = 0.5934 | 0.006 | –
243 K, x1 = 0.2128, x2 = 0.7086 | 0.002 | –
253 K, x1 = 0.1395, x2 = 0.5934 | 0.025 | –
253 K, x1 = 0.2128, x2 = 0.7086 | 0.011 | –
263 K, x1 = 0.1395, x2 = 0.5934 | 0.077 | –
263 K, x1 = 0.2128, x2 = 0.7086 | 0.037 | –
273 K, x1 = 0.1395, x2 = 0.5934 | 0.18 | –
273 K, x1 = 0.2128, x2 = 0.7086 | 0.094 | –
283 K, x1 = 0.1395, x2 = 0.5934 | 0.354 | –
283 K, x1 = 0.2128, x2 = 0.7086 | 0.2 | –
288.15 K, x1 = 0.1395, x2 = 0.5934 | – | 274
288.15 K, x1 = 0.2128, x2 = 0.7086 | – | 880
293 K, x1 = 0.1395, x2 = 0.5934 | 0.615 | –
293 K, x1 = 0.2128, x2 = 0.7086 | 0.371 | –
293.15 K, x1 = 0.1395, x2 = 0.5934 | – | 204
293.15 K, x1 = 0.2128, x2 = 0.7086 | – | 587
298.15 K, x1 = 0.1395, x2 = 0.5934 | – | 153.7
298.15 K, x1 = 0.2128, x2 = 0.7086 | – | 394
303 K, x1 = 0.1395, x2 = 0.5934 | 0.974 | –
303 K, x1 = 0.2128, x2 = 0.7086 | 0.624 | –
303.15 K, x1 = 0.1395, x2 = 0.5934 | – | 116.8
303.15 K, x1 = 0.2128, x2 = 0.7086 | – | 269
308.15 K, x1 = 0.1395, x2 = 0.5934 | – | 89.5
308.15 K, x1 = 0.2128, x2 = 0.7086 | – | 185
313 K, x1 = 0.1395, x2 = 0.5934 | 1.43 | –
313 K, x1 = 0.2128, x2 = 0.7086 | 0.971 | –
313.15 K, x1 = 0.1395, x2 = 0.5934 | – | 69.2
313.15 K, x1 = 0.2128, x2 = 0.7086 | – | 129.3
323 K, x1 = 0.1395, x2 = 0.5934 | 2 | –
323 K, x1 = 0.2128, x2 = 0.7086 | 1.42 | –
333 K, x1 = 0.1395, x2 = 0.5934 | 2.66 | –
333 K, x1 = 0.2128, x2 = 0.7086 | 1.98 | –
343 K, x1 = 0.1395, x2 = 0.5934 | 3.41 | –
343 K, x1 = 0.2128, x2 = 0.7086 | 2.64 | –
353 K, x1 = 0.1395, x2 = 0.5934 | 4.25 | –
353 K, x1 = 0.2128, x2 = 0.7086 | 3.42 | –
363 K, x1 = 0.1395, x2 = 0.5934 | 5.17 | –
363 K, x1 = 0.2128, x2 = 0.7086 | 4.3 | –
373 K, x1 = 0.1395, x2 = 0.5934 | 6.16 | –
373 K, x1 = 0.2128, x2 = 0.7086 | 5.28 | –

CCCC[n+]1ccn(C)c1.N#C[N-]C#N + O + NCCO
100 kPa, x1 = 0.2918, x2 = 0.2557
Details | viscosity [mPa·s]
303 K | 11.73
308 K | 9.99
313 K | 8.59
318 K | 7.46
323 K | 6.53

CC[n+]1ccn(C)c1C.O=S(=O)([N-]S(=O)(=O)C(F)(F)F)C(F)(F)F + O=C1CCCO1
100 kPa, frequency 0.005 MHz
Details | electrical conductivity [S/m]
293.15 K, x2 = 0.3071 | 0.628
293.15 K, x2 = 0.7999 | 1.36
293.15 K, x2 = 0.9507 | 0.925
298.15 K, x2 = 0 | 0.383
298.15 K, x2 = 0.6999 | 1.42
298.15 K, x2 = 0.7999 | 1.52
308.15 K, x2 = 0.4996 | 1.34
308.15 K, x2 = 0.8999 | 1.72
313.15 K, x2 = 0.8999 | 1.84
318.15 K, x2 = 0.4996 | 1.69
323.15 K, x2 = 0 | 0.92
323.15 K, x2 = 0.0999 | 1.07
323.15 K, x2 = 0.5987 | 2.02
323.15 K, x2 = 0.8474 | 2.3
323.15 K, x2 = 0.9507 | 1.4

CC(=O)[O-].CC[n+]1ccn(C)c1 + O=C[C@H](O)[C@@H](O)[C@H](O)[C@H](O)CO
100 kPa
Details | viscosity [mPa·s]
282.5 K, x2 = 0.009453 | 407
282.5 K, x2 = 0.02839 | 517
312.5 K, x2 = 0.1429 | 419
332.2 K, x2 = 0.1429 | 123
373.1 K, x2 = 0.095 | 19
